Test results reported in patent US20250235148A1, “IBS RELATED TESTING AND TREATMENT” (IBS-80, LLC, priority 2021, published 2025).
Where two headings read alike, the source gives them in different places.

Experiments:
skin of each patient [1] = assay: skin patch testing with the first 28 common test materials (Example 2); settings: of 15 symptomatic patients (IBS or IBS-like symptoms)
skin of each patient [2] = settings: human, in vivo, 48 h

| patients with a positive patch test (skin of each patient [2]) | Structure (SMILES) | patients with a positive patch test (skin of each patient [1]) |
| --- | --- | --- |
|  | O=C(OOC(=O)c1ccccc1)c1ccccc1 [benzoyl peroxide] | 1 |
|  | C=C(C)[C@H]1CC=C(C)CC1 [dipentene] | 1 |
| 1 | CCCCCCCCCCCCOC(=O)c1cc(O)c(O)c(O)c1 [dodecyl gallate] |  |
